Source: patent US9480662B1 (priority 2015, dated 2016)
One block for each compound: values may come before it.

How the values were obtained:
in vivo = assay: in vivo
Description: The low dose of 1 mg represents the largest potential human dose on an mg/kg basis. The high dose of 20 mg represents the largest potential total human dose unadjusted for body weight.
Pharmacokinetic parameters were determined by non-compartmental methods using Phoenix™ WinNonlin® (Version 6.3.0) Model: Plasma Data, Extravascular Administration for individual serial sample collection data (Pharsight Corporation). Area under the curve values were calculated using the linear trapezoidal rule with linear interpolation. […] Nominal sample collection time was used for the analysis unless the actual sample collection time exceeded the allowable collection window for the respective time; in which case, the actual sample collection time was used. Pharmacokinetic parameter data manipulation was performed using Excel 2010 (Microsoft Corporation).
Pharmacokinetic parameters determined were defined as follows: • Cmax: Maximum observed concentration occurring at Tmax. Tmax: Time of maximum observed concentration. • AUC0-t: Area under the curve from the time of dosing to the time of the last observation.

[1] = oral, cited from earlier work
[2] = test system: postmenopausal hysterectomized patients with atrophic vaginitis; assay: Pilot study of tamoxifen citrate vaginal suppository: self-assessment of vaginal dryness (VAS); type: in vivo, human
Description: (§1) Methodology. Open-label prospective cohort study. Postmenopausal women with atrophic vaginitis were confirmed by vaginal pH. At baseline, vaginal pH and measure of their subjective vaginal dryness based on a VAS vaginal dryness. Four subjects were treated with vaginal suppositories of tamoxifen citrate for three months. After eight weeks of treatment, subjects had pharmacokinetic studies of the vaginal suppository.
(§2) Research Design. Healthy women with atrophic vaginitis were recruited to this study. To be eligible to enroll in the study, subjects underwent one screening visit. This visit was to determine the subject's vaginal pH and to measure of their subjective vaginal dryness based on a VAS. Once the subject met eligibility criteria, they received study medication.
(§3) Subjects received supplies of the study drug every six weeks.
(§4) Duration of Treatment. Participants were given the vaginal suppository every day for one week and then two times per week thereafter for 3 months. They were told how to insert the test drug (using the applicator, place the study drug deep into the vagina) and the dosing schedule.
(§5) Statistical Methods. The primary endpoints are changes in the self-assessment of vaginal dryness and vaginal pH defined as the difference between the baseline and the 3-month measurements. Descriptive statistics provided for the continuous study endpoints will include mean, median, standard deviation, and 95% confidence intervals. Descriptive statistics provided for categorical endpoints will include frequencies, percents, and 95% confidence intervals. Missing values of a variable will be imputed using the last observed value for the participant. Descriptive statistics will be provided with and without imputation of missing values.

[3] = test system: postmenopausal hysterectomized patients with atrophic vaginitis; assay: Pilot study of tamoxifen citrate vaginal suppository: vaginal pH; type: in vivo, human
Description: as §1, §2, §3, §4, §5

[4] = test system: postmenopausal hysterectomized patients with atrophic vaginitis; settings: 3 months of vaginal suppository, 4 patients
female rabbits = assay: 28-day intravaginal irritation study, modified Draize vaginal scoring; type: in vivo, New Zealand White rabbit
Description: The testing was conducted following once daily intravaginal administration to female rabbits for 28 days to provide evaluation of the reversibility, progression, or delayed appearance of any observed changes following a 14-day postdose observation period. The animal model most commonly used to evaluate safety of vaginally administered products is the rabbit and the ovariectomized rat. However, the rabbit is considered the more sensitive model, and thus, was selected for this study.
Assessment of toxicity and/or irritation was based on mortality, clinical observations, vaginal irritation scores, body weight, physical examinations; clinical pathology, anatomic pathology, and histopathological grading of vaginal tissues. Treatment-related microscopic findings occurred in the proximal, mid, and distal vagina.
A total of 26 female experimentally naïve New Zealand White Hra:(NZW)SPF albino rabbits (approximately 7.5 months of age at receipt) were received from Covance Research Products, Greenfield, Ind. During the 9-day acclimation period, the animals were observed daily with respect to general health and any signs of disease.
The vaginal region of the animals was evaluated for signs of irritation using a modified Draize scoring system as presented in the following table. Evaluations were conducted prior to each daily dose and daily during the recovery period. Any abnormalities observed during this examination were documented as a detailed clinical observation. A score of “1” or above was confirmed by a member of the veterinary staff.

[5] = female, New Zealand White, rabbit, in vivo
[6] = Day 28, 1 and 20 mg/mL groups, female rabbits
[7] = 20 mg vaginal suppository daily for one week then twice per week, month 3, 4 subjects
[8] = 20 mg vaginal suppository, month 3 versus enrollment, negative = decrease
[9] = baseline before treatment, 4 subjects

Tmax (median) (in vivo; rabbit, in vivo): 1 h
SMILES: CC/C(=C(\c1ccccc1)c1ccc(OCCNC)cc1)c1ccccc1 [N-Desmethyltamoxifen]

SMILES: CC/C(=C(\c1ccccc1)c1ccc(OCCN(C)C)cc1)c1ccccc1 [Tamoxifen, 1-(p-dimethylamino-ethoxphenyl)-2-ethyl-1,2-diphenylethylene, reference compound]
time to steady state concentrations ([1]; after initiation of therapy): about 4 weeks
average steady state plasma concentration ([1]; once daily for 3 months): 122 ng/mL
Mean AUC0-t, range over dose groups (in vivo; [5]): 8.85 to 26.5 ng·h/mL
Mean Cmax, range over dose groups (in vivo; [5]): 0.824 to 2.33 ng/mL
Tmax (in vivo; female, New Zealand White, rabbit, in vivo, Median Tmax, range over dose groups): 0.5 to 1 h
Tmax (in vivo; female, New Zealand White, rabbit, in vivo, Tmax (median)): 1 h

SMILES: CCC(=C(c1ccc(O)cc1)c1ccc(OCCN(C)C)cc1)c1ccccc1 [4-Hydroxytamoxifen]
Ratio of high to low mean values, AUC0-t/Dose (in vivo; [6]): 3.16
Ratio of high to low mean values, Cmax/Dose (in vivo; [6]): 4.24
Ratio of mean metabolite to Tamoxifen AUC0-t values (in vivo; Day 28, High Dose 20 mg/mL, female rabbits): 0.148
Ratio of mean metabolite to Tamoxifen AUC0-t values (in vivo; Day 28, Low Dose 1 mg/mL, female rabbits): 0.0702
Median Tmax, range over dose groups (in vivo; rabbit, in vivo): 1 to 8 h

SMILES: CC/C(=C(\c1ccccc1)c1ccc(OCCN(C)C)cc1)c1ccccc1.O=C(O)CC(O)(CC(=O)O)C(=O)O [tamoxifen citrate, (Z) 2-[4-(1,2-diphenyl-1-butenyl)phenoxy]-N, N-dimethylethanamine 2-hydroxy-1,2,3-propanetricarboxylate]
Vaginal Dryness Month 3, median (VAS) [2, 7]: 3.0
Vaginal Dryness, Paired Difference enrollment to month 3, median [2, 8]: −5.5
Vaginal Dryness Enrollment, median (VAS) [2, 9]: 8.0
pH Month 3, median [3, 7]: 5.0
vaginal pH, Paired Difference enrollment to month 3, median [3, 8]: −2.0
lowering of vaginal pH compared with conjugated estrogens ([3]; after 3 months, twice per week regimen): as effective as conjugated estrogens
pH Enrollment, median [3, 9]: 7.1
drop-outs, serious adverse events, deaths [4]: no patient drop-outs, serious adverse events, or deaths
vaginal irritation (erythema, edema scores) (female rabbits; 1 and 20 mg/mL intravaginal once daily, 28 days): no test article-related vaginal irritation
vaginal irritation during recovery period (female rabbits; 14-day recovery period): no signs of vaginal irritation
vaginal irritation compared with vehicle control (female rabbits; low and high doses (1 and 20 mg/mL), 28 days): did not appear to be any more irritating than the vehicle control
